# According to patent US20150250824A1, “METHODS AND COMPOSITIONS FOR EXPANSION OF STEM CELLS AND OTHER CELLS” (The Research Foundation For The State University Of New York, priority 2014, published 2015):
# “Also recorded” adds a separate entry of the source. Structures can show the parent of a compound that is named as a salt. Where two headings read alike, the source gives them in different places.
# Experiments:
# [1] = system: CD34+ cells isolated from peripheral blood of G-CSF-mobilized donors; assay: Ex vivo culture of mobilized peripheral blood CD34+ cells with compounds, CD34/CD38 flow cytometry; format: cell-based, human; settings: 11 days, minimal cytokines; for effect on CD34+CD38+ and CD34+CD38− populations: C, 6, F at 10 μM, Z at 100 nM
# Description: CD34+ cells were isolated from cord blood or from peripheral blood of G-CSF-mobilized adult donors and cultured as follows. Mononuclear cells (MNCs) were isolated using a simple red blood cell lysis (15 minutes at room temperature using BD PharmLyse) or using Ficoll-Paque density gradient centrifugation (Jaatinen and Laine, Current Protocols Stem Cell Biol. 1:2A.1.1-2A.1.4. (2007)). The cells were then incubated with MACS CD34+ Microbead kit (Miltenyi Biotec, Auburn, Calif.) and run through a magnetic column resulting in selection for CD34+ cells. […] Human cortex neural stem cell (hcx NSC) cells were purchased from Millipore.
# (§1) CD34+ cells were cultured in […] medium ([…] Technologies, Vancouver, BC, Canada) supplemented with 10% FBS, 100 ng/ml hSCF (human stem cell factor), 100 ng/ml hTPO (human thrombopoietin), 100 ng/ml hFLT-3 ligand (Human Fms-related Tyrosine Kinase 3) (Peprotech, Rocky Hill, N.J., USA) and 100 U/ml penicillin/streptomycin (Gibco). Human cortex Neural Progenitor Cell line (hcx NSC) was maintained in ReNcell medium: ReNcell NSC Maintenance medium (Millipore) supplemented with 20 ng/ml human EGF, 20 ng/ml human bFGF (Peprotech) and 100 U/ml penicillin/streptomycin. For expansion of cells targeted for cell sorting, we used the same media containing a different cytokine cocktail of 100 ng/ml SCF, TPO and 10 ng/ml IL-3.
# Cells were centrifuged for 5 minutes at 200 G at 4° C. Cells were resuspended with CD34, 38 and/or 41 conjugated antibodies for 30 minutes on ice. Cells were then washed with 2 ml of PBS and centrifuged for 5 minutes at 200 G at 4° C. The final pellet was resuspended using 300 μl of 2% formalin.
# CD34+ cells isolated from peripheral blood of G-CSF-mobilized donors were cultured for 11 days with minimal cytokines and the 4 chemical cocktail (C6FZ). […] The population bearing CD34+/CD38− is associated with long-term repopulating HSCs.
# CD34+ cells isolated from the peripheral blood of G-CSF-mobilized donors were next cultured for 11 days with minimal cytokines and the individual compounds, C, 6, F and Z (FIG. 13).
# [2] = system: CD34+ cells isolated from human umbilical CB; format: cell-based; settings: for number of large megakaryocytes / shortening of maturation compared to control: 4-5 day culture; for ploidy development compared to control or 616452 alone: 4 and 8 days induction; for CD41 population compared to control: 4 days of culture, flow analysis
# Description: Megakaryocytes derived from CB in vitro are usually smaller than megakaryocytes derived from bone marrow or mobilized peripheral blood from adults. Small megakaryocyte size may contribute to delayed platelet engraftment when cord blood is used for bone marrow transplantation. To test whether 616452 is able to increase fetal/neonatal megakaryocyte size and ploidy, CD34+ cells isolated from human umbilical CB were cultured in StemSpan SFEM containing SCF, TPO and Flt-3 Ligand. CB CD34+ cells in the presence of TPO after 4 or 8 day culture, were morphologically consistent of a relative homogenous population of small cells (FIG. 19A) and megakaryocytic features such as large nuclear size and cytoplasmic mass were hardly detectable.
# One of the unique characteristics of megakaryocytes is the ploidy development of their nuclei, which can be easily measured using propidium iodide (PI), a fluorescent intercalating agent that binds to nucleic acids. Megakaryocyte (Mk) ploidy correlates well with their maturation and platelet production. […] Out of 10,000 events, the control cells only elicited only 1 cell with a ploidy of 16N and nothing thereon greater (FIG. 20A).
# human CB CD34+ cells = assay: Ex vivo expansion of cord blood CD34+ cells in HSC media with small molecules; format: cell-based; settings: for retention/expansion of CD34+CD38− stem/progenitor cells compared to control: 5 days, HSC media with SCF, TPO, Flt-3 ligand 100 ng/ml each, Z 100 nM, Bix 1 μM, T 10 μM
# Description: as §1
# Cells were centrifuged for 5 minutes at 200 G at 4° C. Cells were resuspended with CD34, 38 and/or 41 conjugated antibodies for 30 minutes on ice. Cells were then washed with 2 ml of PBS and centrifuged for 5 minutes at 200 G at 4° C. The final pellet was resuspended using 300 μl of 2% formalin. […]
# Recent studies in iPS cell reprogramming have discovered numerous small molecules modulating iPS cell reprogramming through different cellular mechanisms. These could include cellular signaling pathways (such as Wnt signaling and TGF beta) and epigenetic mechanisms, such as DNA methyltransferases, histone methylation and histone deacetylation. We have screened small molecule modulators involving these cellular mechanisms for hematopoietic stem/progenitor cell expansion. […] CB CD34+ cells were cultured for 5 days in HSC media containing SCF, TPO, and Flt-3 ligand at 100 ng/ml each. […] Bix (BIX01294), trihydrochloride hydrate is a histone methyltransferase (HMTase) G9a inhibitor (FIG. 15).
# Previously we have shown that stem cell protein is a robust stimulator for hematopoietic stem/progenitor cell expansion via recruitment of various epigenetic factors such as histone deacylases and DNA methyltransferases (Yang et al, J Biol Chem. 2012, 13; 287(3): 1996-2005). […] Based on this finding, we screened the LSD1 inhibitors for the expansion of hematopoietic precursor cells. hUCB CD34+ cells were cultured for 5 days in HSC media containing SCF, TPO, and Flt-3 ligand at 100 ng/ml each.
# eiNSCs = assay: In vitro expansion of episome-derived induced neural stem cells (eiNSCs); format: cell-based, human; settings: added after the first passage in ReNcell medium
# Description: For reprogramming of CD34+ cells to iNSCs by an OCT4 episomal vector, the CD34+ cells were transduced with an EBNV1-based pCEP4-OCT4 expression plasmid in which the CMV promoter is replaced by the SFFV promoter. Cells were transduced by electroporation using the Human CD34 Cell NUCLEOFECTOR® Kit (Lonza, Koln, Germany). Post-transduction, cells were incubated with hypoxia (5% 02), following the lentivirus reprogramming strategy described above. Dzep (3-deazaneplanocin, Sigma) was added to the solution after the first passage in ReNcell medium to maintain the cells for a longer period before senescence/quiescence.
# While direct reprogramming using lentivirus does provide an increasingly popular approach that bypasses the iPS cell state, the issue of random integration of foreign DNA into the host's genome still remains. We attempted to generate iNSCs from CB by an integration-free method. CB CD34^+ were electroporated with an episomal vector containing a high expression OCT4 gene. […] In addition, eiNSCs are able to differentiate into neural and glial cells as neuron and astrocyte markers were observed after random differentiation. However, eiNSCs are slower in growth rate with a doubling time of approximately 36 hours where iNSCs have a doubling time of approximately 24 hours. […]
# [3] = system: hematopoietic stem/progenitor cells; assay: Dose determination of BIX, Z and UNC on expansion of hematopoietic stem/progenitor cells; format: cell-based; settings: at concentrations of 0.25×
# Text: The inventors have also determined the dose for BIX, Z and UNC on the expansion of hematopoietic stem/progenitor cells. […] UNC (UNC0638) and BIX are quite similar in their impact of expansion of hematopoietic stem/progenitor cells.
compound,measurement,setting,value
"Cc1c[nH]c(-c2cnc(NCCNc3ccc(C#N)cn3)nc2-c2ccc(Cl)cc2Cl)n1 [CHIR99021, 6-[[2-[[4-(2,4-dichlorophenyl)-5-(5-methyl-1H-imidazol-2-yl)-2 pyrimidinyl]amino]ethyl]amino]-3-pyridinecarbonitrile]",effect on CD34+CD38+ and CD34+CD38− populations,[1]; listed as C,does not have much of effect; also recorded: did not have much of effect
same,proliferation and maturation of CD34+ cells compared to control,[1]; listed as C,"rapidly proliferates bone marrow CD34 cells leading to their maturation at a significantly rapid rate compared to control; also recorded: rapidly proliferated the bone marrow CD34+ cells, leading to their maturation at a significantly rapid rate compared to control"
"C=C[C@@]1(C)CC(=O)[C@]2(O)[C@@]3(C)[C@@H](O)CCC(C)(C)[C@@H]3[C@H](O)[C@H](OC(C)=O)[C@@]2(C)O1 [F, 7β-acetoxy-8,13-epoxy-1α,6β,9α-trihydroxylabd-14-en-11-one]",effect on CD34+CD38+ and CD34+CD38− populations,[1],induce a significant proportion of CD34+CD38+ population; also recorded: induce a significant proportion of CD34+CD38+ cells; also recorded: induced a significant expansion of CD34+CD38+
"NC(=O)c1ccc(-c2nc(-c3ccc4c(c3)OCO4)c(-c3ccccn3)[nH]2)cc1 [SB431542, 4-[4-(1,3-benzodioxol-5-yl)-5-(2-pyridinyl)-1H-imidazol-2-yl]benzamide]",number of large megakaryocytes / shortening of maturation compared to control,[2],little or no effect
same,ploidy development compared to control or 616452 alone,[2],no significant deviation in ploidy development
same,ploidy development compared to control or 616452 alone,[2]; listed as SB431452,no significant difference
same,CD41 population compared to control,[2],marginal decrease in the CD41 population
"Nc1nccc2c1ncn2[C@@H]1C=C(CO)[C@@H](O)[C@H]1O [Z, 5R-(4-amino-1H-imidazo[4,5-c]pyridin-1-yl)-3-(hydroxymethyl)-3-cyclopentene-1S,2R-diol]",retention/expansion of CD34+CD38− stem/progenitor cells compared to control,human CB CD34+ cells,retained a large portion of CD34+CD38− stem/progenitor cells; also recorded: enhances retention and expansion of CD34+CD38-population; also recorded: promotes hematopoietic precursor immunophenotype and expands CD34+CD38− population
same,effect on CD34+CD38+ and CD34+CD38− populations,[1],best effect enhancing both CD34+CD38- and CD34+ and CD38+ positive cells; also recorded: ability to enhance both the population of single positive (CD34+CD38−) and double positive (CD34+CD38+) cells; also recorded: the most effects on the CD34+CD38− population
same,additional passages of eiNSC growth,eiNSCs,two
same,toxicity,[3],no significant toxicity
"COc1cc2nc(N3CCCN(C)CC3)nc(NC3CCN(Cc4ccccc4)CC3)c2cc1OC [Bix, 2-(Hexahydro-4-methyl-1H-1,4-diazepin-1-yl)-6,7-dimethoxy-N-[1-(phenylmethyl)-4-piperidinyl]-4-quinazolinamine trihydrochloride hydrate]",retention/expansion of CD34+CD38− stem/progenitor cells compared to control,human CB CD34+ cells; trihydrochloride hydrate,retained a large portion of CD34+CD38− stem/progenitor cells; also recorded: enhances retention and expansion of CD34+CD38-population
same,toxicity,[3],no significant toxicity
"COc1cc2c(NC3CCN(C(C)C)CC3)nc(C3CCCCC3)nc2cc1OCCCN1CCCC1 [UNC, 2-Cyclohexyl-6-methoxy-N-[1-(1-methylethyl)-4-piperidinyl]-7-[3-(1-pyrrolidinyl)propoxy]-4-quinazolinamine]",toxicity,[3],no significant toxicity
"Cc1cccc(-c2nn(C(=S)Nc3ccccc3)cc2-c2ccnc3ccccc23)n1 [compound 616454, 3-(6-Methylpyridin-2-yl)-4-(4-quinolyl)-1-phenylthiocarbamoyl-1H-pyrazole]",number of large megakaryocytes / shortening of maturation compared to control,[2],little or no effect
same,CD41 population compared to control,[2],no any significant difference from control
"Cl.N[C@H]1C[C@@H]1c1ccccc1 (racemic) [T, (±)-trans-2-Phenylcyclopropylamine hydrochloride]",fold increase in CD34+CD38− cells compared to the input,"human CB CD34+ cells; 10 μM, 5 day culture",approximately 60 fold
same,fold increase in total cell counts compared to the input,"human CB CD34+ cells; 10 μM, 5 day culture",~45 fold
same,retention/expansion of CD34+CD38− stem/progenitor cells compared to control,human CB CD34+ cells; hydrochloride,retained a significant fraction of CD34+CD38− cells and expanded this population; also recorded: promotes hematopoietic precursor immunophenotype and expands CD34+CD38− population
